pIC50, pKd: −log10 of the molar value. In brackets after ≈: the same amount, converted by molar mass. Activity calls are given as the source filed them. The rule behind the calls is not given here.

Data set [1] can be described thus: Antitumor activity against patient derived explant HBCx-17 cells xenografted in mouse assessed as tumor regression administered daily at 100 mg/kg, po for 25 days relative to control. The format is functional, Homo sapiens. The settings on record: time 25 day.
The test system of data set [2] is DLD-1. In words: Antiproliferative activity against human DLD-1 deficient in BRCA-2 cells measured after 7 days. The format is functional, cell-based. The settings on record: Homo sapiens, DLD-1, 168 h.
Data set [3] can be described thus: Hematotoxicity in CD34+ hematopoietic stem/progenitor cells (unknown origin) assessed as remaining viable cells treated at 100 nM for 5 days by cell-tire-Glo-2.0 luminescence based assay relative to control. It is filed as toxicity, CD34-positive hematopoietic stem/progenitor cell. The settings on record: time 5 day, read-out: Activity.
The target in data set [4] is Protein mono-ADP-ribosyltransferase TIPARP (Homo sapiens) (UniProt Q7Z3E1).
Protein mono-ADP-ribosyltransferase TIPARP (Homo sapiens), sequence (Q7Z3E1 whole entry): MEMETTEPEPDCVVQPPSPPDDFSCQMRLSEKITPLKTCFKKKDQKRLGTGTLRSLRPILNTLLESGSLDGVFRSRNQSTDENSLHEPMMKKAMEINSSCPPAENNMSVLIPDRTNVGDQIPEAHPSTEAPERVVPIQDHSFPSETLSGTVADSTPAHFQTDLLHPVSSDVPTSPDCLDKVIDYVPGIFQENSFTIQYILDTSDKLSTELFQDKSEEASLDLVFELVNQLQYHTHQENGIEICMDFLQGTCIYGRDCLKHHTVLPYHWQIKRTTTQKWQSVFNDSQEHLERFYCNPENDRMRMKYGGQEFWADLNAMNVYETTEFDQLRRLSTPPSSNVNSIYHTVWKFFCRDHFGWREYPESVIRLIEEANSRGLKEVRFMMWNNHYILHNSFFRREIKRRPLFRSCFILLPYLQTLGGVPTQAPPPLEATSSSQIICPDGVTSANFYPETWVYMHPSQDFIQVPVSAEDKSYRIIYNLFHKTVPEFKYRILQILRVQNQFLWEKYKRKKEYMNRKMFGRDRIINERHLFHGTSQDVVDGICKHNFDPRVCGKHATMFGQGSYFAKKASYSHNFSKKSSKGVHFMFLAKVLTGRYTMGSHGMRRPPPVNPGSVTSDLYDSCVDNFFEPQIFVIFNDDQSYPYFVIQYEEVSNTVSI
Data set [5] deals with Protein mono-ADP-ribosyltransferase PARP8 (Homo sapiens, UniProt Q8N3A8). In words: Binding affinity to PARP8 (unknown origin) assessed as apparent dissociation constant. The note with it: read-out: Kd(app).
Data set [6] in a line: Hematotoxicity in CD34+ hematopoietic stem/progenitor cells (unknown origin) assessed as reduction of cell viability treated for 5 days by cell-tire-Glo-2.0 luminescence based assay. It is filed as toxicity, CD34-positive hematopoietic stem/progenitor cell. The settings on record: for Activity: cd34-positive hematopoietic stem/progenitor cell, 120 h, DDE = dose-dependent effect, dose lower 1e-05 µM, dose upper 100 µM, time 5 day.

Data set [7] concerns the target Protein mono-ADP-ribosyltransferase PARP12 (Homo sapiens, UniProt Q9H0J9).
The target in data set [8] is Protein mono-ADP-ribosyltransferase PARP9 (Homo sapiens, UniProt Q8IXQ6).
Data set [9] concerns the target Poly [ADP-ribose] polymerase tankyrase-2 (Homo sapiens) (UniProt Q9H2K2).
Data set [10] in a line: Hematotoxicity in CD34+ hematopoietic stem/progenitor cells (unknown origin) assessed as reduction of cell viability treated at 0.00001 to 100 uM for 5 days by cell-tire-Glo-2.0 luminescence based assay relative to control. The format is toxicity. The note with it: cd34-positive hematopoietic stem/progenitor cell, 120 h, dose lower 1e-05 µM, dose upper 100 µM, time 5 day.

The nature of data set [11]: Hematotoxicity in CD34+ hematopoietic stem/progenitor cells (unknown origin) assessed as reduction of cell viability treated at 3 nM for 5 days by cell-tire-Glo-2.0 luminescence based assay. The format is toxicity. The note with it: cd34-positive hematopoietic stem/progenitor cell, 120 h, 0.003 µM, time 5 day.
The target in data set [12] is T1, Protein mono-ADP-ribosyltransferase PARP8 (Homo sapiens) (UniProt Q8N3A8).
T1 sequence (whole entry): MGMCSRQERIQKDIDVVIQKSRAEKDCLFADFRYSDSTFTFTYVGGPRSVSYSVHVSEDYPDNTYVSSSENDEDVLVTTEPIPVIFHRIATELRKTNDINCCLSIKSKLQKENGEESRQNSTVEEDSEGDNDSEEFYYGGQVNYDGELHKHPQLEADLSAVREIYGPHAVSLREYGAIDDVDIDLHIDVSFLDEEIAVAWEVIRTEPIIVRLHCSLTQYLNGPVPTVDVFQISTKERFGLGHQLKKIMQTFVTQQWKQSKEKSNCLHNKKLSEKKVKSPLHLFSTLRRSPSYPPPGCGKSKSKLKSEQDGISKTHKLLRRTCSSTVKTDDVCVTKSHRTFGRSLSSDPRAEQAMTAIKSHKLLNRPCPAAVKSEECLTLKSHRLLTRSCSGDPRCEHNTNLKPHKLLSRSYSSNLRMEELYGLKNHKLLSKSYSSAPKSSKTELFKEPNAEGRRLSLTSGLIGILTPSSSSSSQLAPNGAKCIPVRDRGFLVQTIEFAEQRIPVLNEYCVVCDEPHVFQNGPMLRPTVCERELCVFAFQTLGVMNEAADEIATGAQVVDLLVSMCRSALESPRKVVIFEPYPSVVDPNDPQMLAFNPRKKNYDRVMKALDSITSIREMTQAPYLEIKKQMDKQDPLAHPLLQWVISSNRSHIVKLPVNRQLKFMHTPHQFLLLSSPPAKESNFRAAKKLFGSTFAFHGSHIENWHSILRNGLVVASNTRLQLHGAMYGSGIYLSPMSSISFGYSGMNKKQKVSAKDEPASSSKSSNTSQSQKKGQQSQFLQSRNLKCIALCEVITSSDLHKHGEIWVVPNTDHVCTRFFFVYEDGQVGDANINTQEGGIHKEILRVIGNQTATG

Data set [13] deals with Protein mono-ADP-ribosyltransferase PARP3 (Homo sapiens) (UniProt Q9Y6F1). Put plainly: Binding affinity to PARP3 (unknown origin) assessed as apparent dissociation constant.
Data set [14] can be described thus: in vitro. The settings on record: rat, plasma.
A short description of data set [15]: Intrinsic clearance in human hepatocytes measured per million of cells. The format is ADME, cell-based, Hepatocyte. The note with it: read-out: CLH.
Data set [16] concerns the target Protein mono-ADP-ribosyltransferase PARP16 (Homo sapiens) (UniProt Q8N5Y8). Put plainly: Binding affinity to PARP16 (unknown origin) assessed as apparent dissociation constant.
Data set [17] in a line: Antitumor activity against patient derived explant HBCx-17 cells xenografted in mouse assessed as tumor regression administered daily at 0.1 mg/kg, po for 25 days relative to control. It is filed as functional, Homo sapiens. The settings on record: time 25 day.
The nature of data set [18]: Unbound clearance in mouse. It is filed as ADME, organism-based. The note with it: in vivo.
Data set [19] can be described thus: in vitro. The note with it: rhesus monkey, plasma.
Data set [20] can be described thus: Half life in rat. It is filed as ADME. The settings on record: in vivo.
Data set [21] in a line: in vitro. The note with it: human, liver microsomes.
Data set [22] in a line: Half life in monkey. The format is ADME, Macaca mulatta. The settings on record: rhesus monkey, in vivo.
Data set [23] can be described thus: Oral bioavailability in rat. It is filed as ADME, organism-based. The settings on record: in vivo.
Data set [24] is described as follows: Plasma clearance in rat. It is filed as ADME.
Data set [25] in a line: Volume of distribution at steady state in dog. It is filed as ADME, Canis lupus familiaris. The note with it: in vivo, read-out: Vdss.
The nature of data set [26]: Antitumor activity against patient derived explant HBCx-17 cells xenografted in mouse assessed as tumor regression administered daily at 10 mg/kg, po for 25 days relative to control. The format is functional, Homo sapiens. The settings on record: time 25 day.
Data set [27] can be described thus: Antitumor activity against patient derived explant HBCx-17 cells xenografted in mouse assessed as tumor regression administered daily at 0.03 mg/kg, po for 25 days relative to control. The format is functional, Homo sapiens. The settings on record: time 25 day.
Data set [28] has as its target Protein mono-ADP-ribosyltransferase PARP10 (Homo sapiens, UniProt Q53GL7). Put plainly: Binding affinity to PARP10 (unknown origin) assessed as apparent dissociation constant. The settings on record: read-out: Kd(app).
Data set [29] can be described thus: Antitumor activity against patient derived explant HBCx-17 cells xenografted in mouse assessed as tumor regression administered daily at 1 mg/kg, po for 25 days relative to control. The format is functional, Homo sapiens. The note with it: time 25 day.
A short description of data set [30]: Oral bioavailability in dog. It is filed as ADME, organism-based, Canis lupus familiaris. The settings on record: in vivo.
Data set [31] in a line: physchem. The note with it: buffer, pH 7.4.
Data set [32] can be described thus: Unbound clearance in dog. The settings on record: in vivo. It is filed as ADME, Canis lupus familiaris.
Data set [33] in a line: Plasma clearance in dog. It is filed as ADME, Canis lupus familiaris.
Data set [34] is described as follows: Unbound clearance in monkey. It is filed as ADME, Macaca mulatta. The settings on record: rhesus monkey, in vivo.
The nature of data set [35]: Volume of distribution at steady state in mouse. The note with it: in vivo, read-out: Vdss. It is filed as ADME, organism-based.
The target in data set [36] is Protein mono-ADP-ribosyltransferase PARP12 (Homo sapiens) (UniProt Q9H0J9).
The target in data set [37] is Poly [ADP-ribose] polymerase tankyrase-1 (Homo sapiens) (UniProt O95271). Put plainly: Binding affinity to PARP5a (unknown origin) assessed as apparent dissociation constant.
A short description of data set [38]: Plasma clearance in mouse. The format is ADME, organism-based.
A short description of data set [39]: Oral bioavailability in mouse. It is filed as ADME, organism-based. The settings on record: in vivo.
The target in data set [40] is Protein mono-ADP-ribosyltransferase PARP4 (Homo sapiens) (UniProt Q9UKK3). In words: Binding affinity to PARP4 (unknown origin) assessed as apparent dissociation constant.
The nature of data set [41]: Volume of distribution at steady state in rat. It is filed as ADME. The settings on record: in vivo, read-out: Vdss.
Data set [42] deals with Protein mono-ADP-ribosyltransferase PARP14 (Homo sapiens) (UniProt Q460N5).
Protein mono-ADP-ribosyltransferase PARP14 (Homo sapiens), sequence (Q460N5 whole entry): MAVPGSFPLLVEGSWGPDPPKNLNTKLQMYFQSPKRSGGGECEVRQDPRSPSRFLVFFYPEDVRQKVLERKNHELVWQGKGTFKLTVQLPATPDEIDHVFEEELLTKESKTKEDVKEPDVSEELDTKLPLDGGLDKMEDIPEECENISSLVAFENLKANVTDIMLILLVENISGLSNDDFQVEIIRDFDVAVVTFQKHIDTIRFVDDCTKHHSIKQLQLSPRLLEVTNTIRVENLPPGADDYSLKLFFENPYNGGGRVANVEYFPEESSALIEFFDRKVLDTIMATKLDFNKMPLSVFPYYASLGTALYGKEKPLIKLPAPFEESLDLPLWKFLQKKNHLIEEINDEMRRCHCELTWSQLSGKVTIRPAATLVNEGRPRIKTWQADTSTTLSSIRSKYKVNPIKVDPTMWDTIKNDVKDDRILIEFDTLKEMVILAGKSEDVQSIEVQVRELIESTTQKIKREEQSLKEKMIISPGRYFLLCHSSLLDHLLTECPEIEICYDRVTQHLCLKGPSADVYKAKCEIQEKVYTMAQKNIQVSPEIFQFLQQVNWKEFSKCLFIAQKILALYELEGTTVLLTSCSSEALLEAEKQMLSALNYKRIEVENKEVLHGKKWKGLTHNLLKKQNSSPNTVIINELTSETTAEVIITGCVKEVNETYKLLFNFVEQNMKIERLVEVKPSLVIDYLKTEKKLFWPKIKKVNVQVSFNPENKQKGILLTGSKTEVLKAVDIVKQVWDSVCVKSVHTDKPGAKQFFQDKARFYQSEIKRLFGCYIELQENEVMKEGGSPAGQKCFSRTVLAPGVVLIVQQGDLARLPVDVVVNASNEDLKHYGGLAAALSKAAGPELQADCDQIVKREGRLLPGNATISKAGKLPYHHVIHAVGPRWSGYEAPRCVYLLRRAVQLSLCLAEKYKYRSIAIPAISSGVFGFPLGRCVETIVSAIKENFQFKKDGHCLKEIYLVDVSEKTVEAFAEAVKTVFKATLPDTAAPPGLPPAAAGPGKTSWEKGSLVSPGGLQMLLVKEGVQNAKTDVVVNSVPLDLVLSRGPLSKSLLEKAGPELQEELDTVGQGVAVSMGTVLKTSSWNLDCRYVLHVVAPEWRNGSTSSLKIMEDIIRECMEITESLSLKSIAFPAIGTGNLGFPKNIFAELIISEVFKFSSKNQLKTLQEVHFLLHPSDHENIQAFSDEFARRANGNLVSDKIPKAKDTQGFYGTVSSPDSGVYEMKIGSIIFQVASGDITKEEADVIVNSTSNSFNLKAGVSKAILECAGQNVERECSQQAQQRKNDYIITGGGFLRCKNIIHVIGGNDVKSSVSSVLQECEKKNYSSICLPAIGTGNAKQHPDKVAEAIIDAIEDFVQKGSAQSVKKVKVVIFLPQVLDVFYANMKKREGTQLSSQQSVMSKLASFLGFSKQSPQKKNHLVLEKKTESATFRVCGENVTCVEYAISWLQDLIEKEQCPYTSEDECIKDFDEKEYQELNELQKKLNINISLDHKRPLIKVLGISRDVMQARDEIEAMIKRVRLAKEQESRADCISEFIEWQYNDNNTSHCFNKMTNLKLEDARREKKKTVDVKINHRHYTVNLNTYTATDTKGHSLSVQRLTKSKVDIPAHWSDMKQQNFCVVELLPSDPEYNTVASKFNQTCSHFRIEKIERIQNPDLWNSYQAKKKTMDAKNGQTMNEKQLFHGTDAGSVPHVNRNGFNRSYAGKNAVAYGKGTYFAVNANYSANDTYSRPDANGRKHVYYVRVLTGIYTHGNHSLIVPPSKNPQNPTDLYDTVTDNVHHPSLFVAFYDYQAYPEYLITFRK
The nature of data set [43]: Volume of distribution at steady state in monkey. It is filed as ADME, Macaca mulatta. The settings on record: rhesus monkey, in vivo; read-out: Vdss.
The nature of data set [44]: Unbound clearance in rat. It is filed as ADME. The settings on record: in vivo.
The nature of data set [45]: Oral bioavailability in monkey. The format is ADME, organism-based, Macaca mulatta. The settings on record: rhesus monkey, in vivo.
The nature of data set [46]: Half life in dog. It is filed as ADME, Canis lupus familiaris. The note with it: in vivo.
Data set [47] in a line: Aqueous solubility of the compound at pH 7.4. It is filed as physicochemical. The settings on record: buffer.
Data set [48] is described as follows: Half life in mouse. It is filed as ADME, organism-based. The note with it: in vivo.
Data set [49] in a line: Plasma clearance in monkey. The format is ADME, Macaca mulatta. The settings on record: rhesus monkey.
Data set [50] is described as follows: in vitro. The note with it: dog, plasma.

Poly [ADP-ribose] polymerase tankyrase-2 (Homo sapiens), sequence (Q9H2K2 whole entry): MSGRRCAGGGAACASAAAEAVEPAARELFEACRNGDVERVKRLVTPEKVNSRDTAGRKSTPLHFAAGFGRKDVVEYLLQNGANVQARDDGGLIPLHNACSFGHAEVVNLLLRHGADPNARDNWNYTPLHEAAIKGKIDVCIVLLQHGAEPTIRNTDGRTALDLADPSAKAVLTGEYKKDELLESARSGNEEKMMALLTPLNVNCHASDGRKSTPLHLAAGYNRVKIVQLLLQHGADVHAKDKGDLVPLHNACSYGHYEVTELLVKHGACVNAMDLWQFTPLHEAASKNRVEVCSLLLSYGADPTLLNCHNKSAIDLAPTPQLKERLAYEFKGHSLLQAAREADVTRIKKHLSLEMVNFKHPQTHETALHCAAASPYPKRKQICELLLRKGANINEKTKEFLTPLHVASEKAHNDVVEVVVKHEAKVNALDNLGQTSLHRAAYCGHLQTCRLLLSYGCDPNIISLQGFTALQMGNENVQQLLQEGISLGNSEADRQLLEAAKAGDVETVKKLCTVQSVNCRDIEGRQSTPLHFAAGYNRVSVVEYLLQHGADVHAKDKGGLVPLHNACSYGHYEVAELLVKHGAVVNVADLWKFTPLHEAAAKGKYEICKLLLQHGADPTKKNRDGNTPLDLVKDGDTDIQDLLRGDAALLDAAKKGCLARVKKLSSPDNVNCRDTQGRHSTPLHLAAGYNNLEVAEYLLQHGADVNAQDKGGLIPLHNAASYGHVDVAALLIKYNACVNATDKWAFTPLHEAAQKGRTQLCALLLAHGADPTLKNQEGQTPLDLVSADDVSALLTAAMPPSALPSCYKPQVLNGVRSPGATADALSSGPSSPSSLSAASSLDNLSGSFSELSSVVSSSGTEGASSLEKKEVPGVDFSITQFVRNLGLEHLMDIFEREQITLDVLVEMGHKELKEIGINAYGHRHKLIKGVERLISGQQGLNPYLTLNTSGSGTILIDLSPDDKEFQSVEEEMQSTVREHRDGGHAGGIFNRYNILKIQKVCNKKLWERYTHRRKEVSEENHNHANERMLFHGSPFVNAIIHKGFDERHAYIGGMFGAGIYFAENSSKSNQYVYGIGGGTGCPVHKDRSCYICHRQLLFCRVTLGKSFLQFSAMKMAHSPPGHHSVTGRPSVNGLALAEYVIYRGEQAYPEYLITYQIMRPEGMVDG
Protein mono-ADP-ribosyltransferase PARP16 (Homo sapiens), sequence (Q8N5Y8 whole entry): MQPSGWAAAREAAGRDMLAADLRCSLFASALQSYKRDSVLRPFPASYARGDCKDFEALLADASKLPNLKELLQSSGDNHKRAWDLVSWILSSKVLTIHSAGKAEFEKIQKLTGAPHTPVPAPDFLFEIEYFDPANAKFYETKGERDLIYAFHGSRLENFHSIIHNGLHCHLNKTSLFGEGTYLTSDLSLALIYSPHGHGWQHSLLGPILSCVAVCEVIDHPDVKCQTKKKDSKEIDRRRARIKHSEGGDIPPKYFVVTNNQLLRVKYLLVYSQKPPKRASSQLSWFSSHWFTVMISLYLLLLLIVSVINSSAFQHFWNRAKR
Protein mono-ADP-ribosyltransferase PARP10, sequence (Q53GL7 whole entry): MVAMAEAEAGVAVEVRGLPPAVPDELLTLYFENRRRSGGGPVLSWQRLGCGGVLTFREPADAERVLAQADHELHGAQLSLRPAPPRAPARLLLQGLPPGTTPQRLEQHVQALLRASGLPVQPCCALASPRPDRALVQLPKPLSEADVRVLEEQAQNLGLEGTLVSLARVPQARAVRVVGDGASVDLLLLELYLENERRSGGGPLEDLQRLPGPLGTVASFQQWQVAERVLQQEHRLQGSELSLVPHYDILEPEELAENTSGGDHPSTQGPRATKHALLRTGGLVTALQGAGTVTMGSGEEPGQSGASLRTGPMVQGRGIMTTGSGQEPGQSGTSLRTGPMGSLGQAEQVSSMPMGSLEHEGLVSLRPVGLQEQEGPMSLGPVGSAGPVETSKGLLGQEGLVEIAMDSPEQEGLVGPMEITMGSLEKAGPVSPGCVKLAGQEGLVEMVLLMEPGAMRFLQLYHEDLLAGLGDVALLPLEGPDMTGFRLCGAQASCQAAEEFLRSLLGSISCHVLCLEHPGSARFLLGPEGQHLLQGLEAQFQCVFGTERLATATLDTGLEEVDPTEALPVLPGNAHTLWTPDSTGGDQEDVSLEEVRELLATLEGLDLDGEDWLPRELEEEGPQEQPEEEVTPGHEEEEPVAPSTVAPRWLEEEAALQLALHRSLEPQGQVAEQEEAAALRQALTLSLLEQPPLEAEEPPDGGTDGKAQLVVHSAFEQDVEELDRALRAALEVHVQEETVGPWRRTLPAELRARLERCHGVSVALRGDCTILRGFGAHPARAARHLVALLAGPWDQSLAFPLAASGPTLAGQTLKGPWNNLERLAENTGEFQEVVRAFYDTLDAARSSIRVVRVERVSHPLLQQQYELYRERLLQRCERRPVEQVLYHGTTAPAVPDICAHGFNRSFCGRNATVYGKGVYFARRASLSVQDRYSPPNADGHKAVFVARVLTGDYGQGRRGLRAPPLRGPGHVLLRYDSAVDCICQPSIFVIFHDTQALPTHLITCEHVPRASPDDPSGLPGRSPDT

In the case of `O=C(c1cc(Cc2n[nH]c(=O)c3ccccc23)ccc1F)N1CCN(C(=O)C2CC2)CC1` [OLAPARIB], the Activity in data set [1] amounted to 81%. The negative logarithm of the IC50 (pIC50) in data set [2] is 7.38.

On to `Cn1ncnc1[C@H]1c2n[nH]c(=O)c3cc(F)cc(c23)N[C@@H]1c1ccc(F)cc1` [TALAZOPARIB], for which, in [3], the viability at 120 h, 0.1 µM amounted to 10%. Further, the “Kd(app)” value in data set [4], in data set [8] and in [9] was “Active” throughout. The pKd is 5.96 in data set [5] and less than 5.00 in [7]. In data set [6] (CD34+ hematopoietic stem/progenitor cells), the IC50 at 5 days was determined as 27 nM. The Activity entry in data set [6] is given as “Dde”; in [10], 1%. In [2], this compound showed a pIC50 of 8.70.

With `CCc1cc2ncc(CN3CCN(c4ccc(C(=O)NC)nc4)CC3)cc2[nH]c1=O` [SARUPARIB], the Activity entry in data set [11] was “Toxic”; in [17], 73%; in data set [26] it was 84%; in data set [27], 23%; in data set [29], 86%; in [6] it was “Dde”. Besides, the “Kd(app)” value in data set [12], in [13], in data set [16], in data set [36], in [37] and in [40] was “Active” each time. The “Kd(app)” value in [42] and in data set [8] was “Active” throughout. Also, the fraction unbound in data set [14] was 0.032; in data set [19], 0.043; in data set [50], 0.17. Further, the hepatocyte CLint in data set [15] was less than 1 µL/min/1e6 cells. Moreover, the CL free in data set [18] is 3.2 mL/min/kg; in data set [32] it was 2.1 mL/min/kg; in data set [34], 20 mL/min/kg; in data set [44], 34 mL/min/kg. The viability at 120 h, 0.1 µM in [3] was found to be 46%. Also, the half-life in data set [20] is 4.6 h; in data set [22], 7.1 h; in [46], 10 h; in data set [48], 8 h. In addition, in data set [21], the microsomal CLint is less than 3 µL/min/mg. The bioavailability in [23] came out at 132%; in [30], 73%; in data set [39] it was 77%; in data set [45] it was 122%. Moreover, the clearance in [24] was determined as 1.1 mL/min/kg; in [33] it was 0.35 mL/min/kg; in data set [38], 0.23 mL/min/kg; in data set [49], 0.84 mL/min/kg. Moreover, the Vd in [25] is 0.3 L/kg; in [35], 0.17 L/kg; in data set [41], 0.38 L/kg; in [43], 0.38 L/kg. Also, the pKd in [28] is less than 5.00. Further, in [31], the logD came to 1.9. The compound also had a pIC50 in [2] of 8.70. The concentration in solution in [47] (solubility) was 50 µM (≈ 20.3 µg/mL).
